Reference: patent US11957684B2, “Treatment of heavy menstrual bleeding associated with uterine fibroids” (Sumitomo Pharma Switzerland GmbH, priority 2016, dated 2024)

Test system: heavy menstrual bleeding associated with uterine fibroids
Experiment: Example 5A 12-week placebo-controlled study in uterine fibroids: efficacy (PBAC, volumes, NRS, UFS-QOL, anemia parameters)
Assay type: in vivo, human
Description: Study participants were Japanese women with HMB (heavy menstrual bleeding) associated with UF (uterine fibroids).
Only the largest myomas among those measurable at Visit 1 were measured throughout the study.
During the period between Visit 2 and 3, in which subjects must have experienced at least 1 regular menstrual cycle, the baseline values concerning efficacy evaluation, including PBAC scores and pain symptoms, were collected. The baseline PBAC score is the total PBAC score for the entire menstrual cycle immediately before Visit 3.
Visit 3 was on Days 1 to 5 of the second menstrual cycle after Visit 1. From Visits 3 to 7, subjects tried to visit the clinics in a fasted state and before taking the study drug.
When a dose was missed before breakfast, subjects took the study drug 30 minutes before either dinner or lunch on the same day.
Pain symptoms, other clinical symptoms and QOL were measured as secondary endpoints. Pain symptoms were evaluated in the patient diary from Visit 1 to the day before Visit 7 using the NRS score. The UFS-QOL score was used to evaluate other clinical symptoms and the QOL of subjects. Subjects completed the UFS-QOL questionnaire at Visits 3, 5, 6 and 7.
In particular, FIGS. 50-52 tabulate hemoglobin concentrations; FIG. 53 tabulates hematocrit percentages; FIG. 54 tabulates serum iron concentrations; and FIG. 55 tabulates ferritin concentrations.
PBAC scores were used in Example 5A, and provide an estimate of menstrual blood loss volume. The PBAC score was evaluated by having subjects record details related to menstrual blood loss on a PBAC score sheet distributed by the sponsor during the treatment period. […] These items represent the level of stained sanitary materials over the course of a menstrual cycle, with a total score ranging from 0 (none) to infinity. Higher scores indicate heavier blood loss. The PBAC score sheet also allows subjects to indicate: whether they experienced bleeding between periods that required sanitary protection; whether they passed clots, and if so, approximate size of the clots; whether they experienced episodes of flooding; and whether they required double protection (used both a pad and tampon simultaneously). As used in the PBAC score sheet of Example 5A, flooding is defined as overflowing, or staining, of clothing or underwear due to menstrual bleeding.
The total PBAC score was derived by summing points for each of the above.
All myoma and uterine volumes referred to herein were evaluated using transvaginal ultrasound. Specifically, the myoma volumes were calculated using the following formula: D1×D2×D3×π/6, where D1 is the longest diameter of the myoma; D2 is the longest diameter of the myoma at an angle perpendicular to D1; and D3 is the diameter of the myoma crossing the intersection of D1 and D2 perpendicular to the D1/D2 plane.

[1] = 10 mg, Week 6-12, listed as Relugolix
[2] = 10 mg, Week 12, listed as Relugolix
[3] = 20 mg, Week 6-12, listed as Relugolix

For CONC(=O)Nc1ccc(-c2sc3c(c2CN(C)C)c(=O)n(-c2ccc(OC)nn2)c(=O)n3Cc2c(F)cccc2F)cc1 [Compound 1, N-(4-(1-(2,6-difluorobenzyl)-5-((dimethylamino)methyl)-3-(6-methoxy-3-pyridazinyl)-2,4-dioxo-1,2,3,4-tetrahydrothieno[2,3-d]pyrimidin-6-yl)phenyl)-N′-methoxyurea], the “Amenorrhea (PBAC from Week 6 to 12 was 0), number of patients” value (10 mg (n = 48)) was 8 n, the “complete response rate, uterine fibroids” value (10 mg or 20 mg) was 21-44% and the myoma volume (10 mg, Week 2) was 116.68±152.833 cm^3. The uterine volume (10 mg, Week 2) was 305.07±265.810 cm^3, the NRS score (10 mg, Week 2-6) was 0.67±1.228 and the “subjects who achieved amenorrhea (PBAC = 0)” value (10 mg, Week 2-6) was 12.5%. The “subjects with total PBAC score <10” value (10 mg, Week 2-6) was 16.7%, the NRS score (10 mg, Week 2-12) was 0.63±1.217 and the “subjects who achieved amenorrhea (PBAC = 0)” value (10 mg, Week 2-12) was 10.4%. The “subjects with total PBAC score <10” value (10 mg, Week 2-12) was 12.5%, the “Fe value (serum iron)” value (10 mg, Week 4) was 72.8 ± 40.58 µg/dL and the Ht value (10 mg, Week 4) was 39.48±3.327%. The “UFS-QOL HRQL total score” value (10 mg, Week 4) was 11.28±10.342, the “UFS-QOL symptom severity score” value (10 mg, Week 4) was 23.78±14.736 and the ferritin value (10 mg, Week 4) was 14.71 ± 16.372 ng/mL. For the same compound, the myoma volume (10 mg, Week 4) was 90.89±108.009 cm^3, the uterine volume (10 mg, Week 4) was 258.10±171.703 cm^3 and the “change of total PBAC score from baseline” value (10 mg, Week 6-12) was −1.4±222.94. For the same compound, the “subjects who achieved amenorrhea (PBAC = 0)” value (10 mg, Week 6-12) was 16.7%, the “subjects with total PBAC score <10” value (10 mg, Week 6-12) was 20.8% and the “total PBAC score (mean±SD)” value (10 mg, Week 6-12) was 268.0±276.37. The NRS score [1] was 0.6, the “subjects who achieved amenorrhea (PBAC = 0)” value [1] was “(16.7) %” and the “Fe value (serum iron)” value (10 mg, Week 8) was 67.3 ± 34.74 µg/dL. The Ht value (10 mg, Week 8) was 39.43±3.154%, the “UFS-QOL HRQL total score” value (10 mg, Week 8) was 13.39±13.179 and the “UFS-QOL symptom severity score” value (10 mg, Week 8) was 24.55±16.105. The myoma volume (10 mg, Week 8) was 97.47±117.339 cm^3, the uterine volume (10 mg, Week 8) was 259.64±190.452 cm^3 and the “Fe value (serum iron)” value (10 mg, Week 12) was 75.3 ± 46.94 µg/dL. The Ht value (10 mg, Week 12) was 39.37±3.639%, the “UFS-QOL HRQL total score” value (10 mg, Week 12) was 13.01±13.270 and the “UFS-QOL HRQL total, change from baseline” value (10 mg, Week 12) was −1.61±10.586. For the same compound, the “UFS-QOL symptom severity score” value (10 mg, Week 12) was 23.28±16.053, the “UFS-QOL symptom severity, change from baseline” value (10 mg, Week 12) was −6.51±18.122 and the “change of Fe value from baseline” value (10 mg, Week 12) was 11.0 ± 42.94 µg/dL. For the same compound, the “change of Hb from baseline” value (10 mg, Week 12) was 0.35 ± 1.055 g/dL, the “change of Ht value from baseline” value (10 mg, Week 12) was 0.77±2.792% and the “change of ferritin value from baseline” value (10 mg, Week 12) was -2.56 ± 6.833 ng/mL. The ferritin value (10 mg, Week 12) was 10.81 ± 9.489 ng/mL, the myoma volume (10 mg, Week 12) was 97.09±126.578 cm^3 and the “percent change of myoma volume from baseline” value (10 mg, Week 12) was −22.63±29.539%. The “percent change of uterine volume from baseline” value (10 mg, Week 12) was −12.10±29.936%, the uterine volume (10 mg, Week 12) was 252.93±175.064 cm^3 and the “UFS-QOL HRQL total, change from baseline” value [2] was −2. The “UFS-QOL symptom severity, change from baseline” value [2] was −7, the “change of Hb from baseline” value [2] was 0.3 g/dL and the “percent change of myoma volume from baseline” value [2] was −23%. The “percent change of uterine volume from baseline” value [2] was −12%, the “Amenorrhea (PBAC from Week 6 to 12 was 0), number of patients” value (20 mg (n = 56)) was 21 n and the myoma volume (20 mg, Week 2) was 98.63±112.118 cm^3. For the same compound, the uterine volume (20 mg, Week 2) was 294.81±269.990 cm^3, the NRS score (20 mg, Week 2-6) was 0.48±0.970 and the “subjects who achieved amenorrhea (PBAC = 0)” value (20 mg, Week 2-6) was 33.9%. For the same compound, the “subjects with total PBAC score <10” value (20 mg, Week 2-6) was 42.9%, the NRS score (20 mg, Week 2-12) was 0.44±0.855 and the “subjects who achieved amenorrhea (PBAC = 0)” value (20 mg, Week 2-12) was 28.6%. The “subjects with total PBAC score <10” value (20 mg, Week 2-12) was 32.1%, the “Fe value (serum iron)” value (20 mg, Week 4) was 77.4 ± 49.74 µg/dL and the Ht value (20 mg, Week 4) was 40.06±3.773%. The “UFS-QOL HRQL total score” value (20 mg, Week 4) was 11.10±13.829, the “UFS-QOL symptom severity score” value (20 mg, Week 4) was 23.12±14.327 and the ferritin value (20 mg, Week 4) was 14.77 ± 11.536 ng/mL. For the same compound, the myoma volume (20 mg, Week 4) was 101.51±132.419 cm^3, the uterine volume (20 mg, Week 4) was 291.73±327.844 cm^3 and the NRS score (20 mg, Week 6-12) was 0.35±0.618. For the same compound, the “change of total PBAC score from baseline” value (20 mg, Week 6-12) was −153.0±194.83, the “subjects who achieved amenorrhea (PBAC = 0)” value (20 mg, Week 6-12) was 38.2% and the “subjects with total PBAC score <10” value (20 mg, Week 6-12) was 43.6%. The NRS score [3] was 0.4, the “subjects who achieved amenorrhea (PBAC = 0)” value [3] was “(38.2) %” and the “Fe value (serum iron)” value (20 mg, Week 8) was 84.2 ± 49.42 µg/dL. For the same compound, the Ht value (20 mg, Week 8) was 40.39±3.389%.
